Assay: Emission intensity of fluorophores exposed to different excitation wavelengths
Type: physicochemical
Conditions: shift in excitation wavelength
Source text: FIGS. 10A and 10B present graphs of emission intensities for two separate fluorphores, mPlum and cy5, exposed to different excitation wavelengths. As shown in FIG. 10A the shift in excitation wavelength yielded a decrease in emission intensity of about 96% for fluorphore 1 which was mPlum.

Compound | increase in emission intensity | decrease in emission intensity (FIG. 10A)
CCN1/C(=C/C=C/C=C/C2=[N+](CCCCCC(=O)O)c3ccc(S(=O)(=O)O)cc3C2(C)C)C(C)(C)c2cc(S(=O)(=O)[O-])ccc21 [cy5] | about 156% | –
mPlum | – | about 96%

— patent US10813554B2, “Medical imaging device and methods of use” (Lumicell, Inc., priority 2013, dated 2020)
